Calls of active or inactive are those of the source.
How the values were obtained:
Ephrin type-A receptor 4 = Ephrin type-A receptor 4 (Mus musculus, UniProt Q03137); assay: inhibitors of EphA4 binding to KYL peptide, primary screen, biochemical, colorimetric, mouse EphA4 (AID 689); assay type: functional
Trypsin = Trypsin (Sus scrofa, UniProt P00761); assay: porcine trypsin inhibitors, dose response, selectivity assay for Rce1 protease inhibitor project, biochemical, quenched peptide fluorescence, cherry-pick (AID 488789)
CAAX prenyl protease 1 = CAAX prenyl protease 1 (Saccharomyces cerevisiae S288c, UniProt P47154); assay: Ste24 protease inhibitors, dose response, biochemical, S. cerevisiae, plate reader, cherry-pick (AID 488815)
CAAX prenyl protease 2 = biological target: T1, CAAX prenyl protease 2 (Saccharomyces cerevisiae S288c, UniProt Q03530); assay type: biochemical
T1 sequence (Q03530 whole entry): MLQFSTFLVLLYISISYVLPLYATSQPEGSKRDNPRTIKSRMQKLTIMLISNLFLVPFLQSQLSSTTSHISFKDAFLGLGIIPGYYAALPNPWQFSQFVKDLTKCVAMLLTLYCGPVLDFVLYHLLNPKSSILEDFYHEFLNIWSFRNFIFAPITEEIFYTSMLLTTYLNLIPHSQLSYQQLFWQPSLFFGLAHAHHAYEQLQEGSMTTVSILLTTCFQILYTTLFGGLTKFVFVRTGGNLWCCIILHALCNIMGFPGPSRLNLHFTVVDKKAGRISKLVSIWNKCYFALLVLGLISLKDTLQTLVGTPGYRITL

[1] = biological target: NACHT, LRR and PYD domains-containing protein 3 (Homo sapiens, UniProt Q96P20); assay: NALP3 inhibitors in yeast, dose response, luminescent (AID 488799); assay type: functional
[2] = microbe, parasite or virus in culture; assay type: functional; details: Mycobacterium tuberculosis
[3] = biological target: Serine/threonine-protein phosphatase PP1-alpha catalytic subunit (Homo sapiens, UniProt P62136); assay: PP1 phosphatase inhibitors, dose response, biochemical, fluorescence (AID 2403);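 further: phosphatase turnover of OMFP into fluorescent 3-O-methylfluorescein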
[4] = control 3'UTR Renilla luciferase suppression, dose response, counter-screen for Shn3 inhibitor project, cell-based, Clone20-Shn3RL, cherry-picked (AID 624133); assay type: functional
[5] = cytotoxicity toward NIH3T3 fibroblasts, dose response, counter-screen, cell-based, ATP luminescence, mouse fibroblasts (AID 2010); assay type: functional;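 further: cells exposed to compound for about 90 hours before reading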
[6] = biological target: Serine/threonine-protein phosphatase (Homo sapiens, UniProt Q9BPW0); assay: Counterscreen for inhibitors of PP1: fluorescence-based biochemical high throughput dose response assay to identify inhibitors of Protein Phosphatase 5 (PP5). [Related pubchem assays: 2034 (Summary (PP5 inhibitors)), 1987 (PP5 inhibitors in singlate), 2235 (PP1 inhibitors in singlate)]
[7] = Shn3 3'UTR reporter inhibitors, dose response, cell-based, Clone20 osteoblasts, firefly luciferase, cherry-picked (AID 624132); assay type: functional;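 further: firefly luciferase luminescence from reporter carrying the Shn3 3'UTR in osteoblasts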
[8] = inhibitors of intracellular T. cruzi replication, confirmation, NIH3T3 host cells, beta-gal luminescence (AID 2044); assay type: functional, cell-based;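 further: intracellular parasites grown in NIH/3T3 mouse fibroblasts as host cells; luminescent beta-galactosidase reporter signal from transgenic T. cruzi replicating inside host cells; inhibitors lower the luminescence signal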
[9] = HepG2 cell cytotoxicity, dose response, cytotoxicity control for Shn3 inhibitor project, CellTiter-Glo, cherry-picked (AID 624134); assay type: functional, cell-based
Aminopeptidase N = Aminopeptidase N (Plasmodium falciparum FcB1/Columbia, UniProt O96935); assay: P. falciparum M1AAP inhibitors, biochemical, fluorogenic H-Leu-NHMec substrate, 1536-well (AID 1445); design: species or system Plasmodium falciparum 3D7, 3D7
[10] = biological target: T2, Microphthalmia-associated transcription factor (Homo sapiens, UniProt O75030); assay: TRPM1 promoter luciferase signal decrease, dose response, MITF inhibitor project, cell-based, SK-MEL-5, cherry-picked, set 3 (AID 493073); assay type: functional
T2 sequence (O75030 whole entry): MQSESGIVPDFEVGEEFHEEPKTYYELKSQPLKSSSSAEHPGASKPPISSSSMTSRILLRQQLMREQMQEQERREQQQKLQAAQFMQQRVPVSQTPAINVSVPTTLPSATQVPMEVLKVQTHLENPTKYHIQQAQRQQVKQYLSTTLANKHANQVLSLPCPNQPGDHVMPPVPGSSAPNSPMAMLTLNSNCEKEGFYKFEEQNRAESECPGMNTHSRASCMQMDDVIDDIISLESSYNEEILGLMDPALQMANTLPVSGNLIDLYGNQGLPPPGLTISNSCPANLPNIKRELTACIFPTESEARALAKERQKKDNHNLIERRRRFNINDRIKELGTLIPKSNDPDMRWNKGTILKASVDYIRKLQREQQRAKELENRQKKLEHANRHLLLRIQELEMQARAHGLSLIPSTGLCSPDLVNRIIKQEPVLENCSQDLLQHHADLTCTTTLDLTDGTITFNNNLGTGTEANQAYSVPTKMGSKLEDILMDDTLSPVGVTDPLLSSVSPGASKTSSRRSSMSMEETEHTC

[11] = biological target: Luciferin 4-monooxygenase (Photinus pyralis, UniProt P08659); assay: firefly luciferase enzyme inhibitors, dose response, biochemical, luminescence (AID 1891)
[12] = Luminescence Cell-Based Dose Confirmation HTS to Identify Inhibitors of Platelet Dense Granule Release. [Related pubchem assays: 1663 (Primary HTS), 1678 (Summary of Project)]; assay type: functional
[13] = Luminescence-based counterscreen assay for KLF5 inhibitors: dose response cell-based high throughput screening assay to identify cytotoxic compounds using the IEC-6 intestinal epithelial cell line. [Related pubchem assays: 1700 (Primary screen.), 1834 (Confirmation screen.), 1858 (Summary AID.), 1905 (Counterscreen.)]; assay type: functional
Paired box protein Pax-8 = Paired box protein Pax-8 (Homo sapiens, UniProt Q06710); assay: inhibitors of PAX8-driven TPO luciferase reporter, dose response, RMG-I cells, cherry-pick (AID 687027); assay type: functional, cell-based;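 further: luciferase reporter driven by Pax8 target thyroperoxidase promoter measured by SteadyGlo luminescence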
[14] = cytotoxicity in HEK-293T cells, dose response, cytotoxicity control for TCR NF-kB inhibitor project, luminescence, T-cell screen hits (AID 489026); assay type: functional, cell-based;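 further: cells exposed to compound about 14 hours before the viability readout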
[15] = non-specific cell cytotoxicity, dose response, cytotoxicity control for PAX8 inhibitor project, plate reader, dry powder samples (AID 743021); assay type: functional, cell-based
A-375 = assay: MITF: Counter assay: A375 proliferation Measured in Cell-Based System Using Plate Reader - 2084-03_Inhibitor_Dose_DryPowder_Activity. [Related pubchem assays (depositor defined):AID488944]; assay type: functional; details: Homo sapiens

Sequence of NACHT, LRR and PYD domains-containing protein 3 (Q96P20 whole entry, the tested form may be a part): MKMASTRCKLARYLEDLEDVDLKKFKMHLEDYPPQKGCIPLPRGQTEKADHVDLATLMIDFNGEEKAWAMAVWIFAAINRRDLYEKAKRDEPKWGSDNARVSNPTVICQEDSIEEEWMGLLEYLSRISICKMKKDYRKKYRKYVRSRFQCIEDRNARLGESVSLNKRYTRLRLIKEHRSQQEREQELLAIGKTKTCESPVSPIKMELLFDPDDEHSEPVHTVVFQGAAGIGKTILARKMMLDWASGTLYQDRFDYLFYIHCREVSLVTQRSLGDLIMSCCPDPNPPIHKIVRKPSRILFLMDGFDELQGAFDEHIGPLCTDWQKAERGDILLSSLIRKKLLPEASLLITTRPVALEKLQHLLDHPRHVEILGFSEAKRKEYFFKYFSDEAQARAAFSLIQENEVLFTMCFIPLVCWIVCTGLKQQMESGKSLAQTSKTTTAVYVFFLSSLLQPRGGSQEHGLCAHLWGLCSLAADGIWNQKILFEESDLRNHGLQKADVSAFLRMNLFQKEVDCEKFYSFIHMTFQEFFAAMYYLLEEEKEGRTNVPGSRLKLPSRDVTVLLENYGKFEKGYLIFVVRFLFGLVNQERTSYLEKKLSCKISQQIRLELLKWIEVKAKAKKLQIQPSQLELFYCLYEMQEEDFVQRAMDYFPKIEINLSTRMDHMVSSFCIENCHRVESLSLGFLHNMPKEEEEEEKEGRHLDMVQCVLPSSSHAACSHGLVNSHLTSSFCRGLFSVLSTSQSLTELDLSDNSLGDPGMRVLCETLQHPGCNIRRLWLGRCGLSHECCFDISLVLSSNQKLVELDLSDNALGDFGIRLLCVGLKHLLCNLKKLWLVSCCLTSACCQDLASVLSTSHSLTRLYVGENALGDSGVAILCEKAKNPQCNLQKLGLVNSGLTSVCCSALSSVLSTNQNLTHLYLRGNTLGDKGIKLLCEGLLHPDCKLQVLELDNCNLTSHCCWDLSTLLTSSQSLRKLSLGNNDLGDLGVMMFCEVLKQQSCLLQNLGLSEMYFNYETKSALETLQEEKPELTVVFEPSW
Sequence of CAAX prenyl protease 1 (P47154 whole entry): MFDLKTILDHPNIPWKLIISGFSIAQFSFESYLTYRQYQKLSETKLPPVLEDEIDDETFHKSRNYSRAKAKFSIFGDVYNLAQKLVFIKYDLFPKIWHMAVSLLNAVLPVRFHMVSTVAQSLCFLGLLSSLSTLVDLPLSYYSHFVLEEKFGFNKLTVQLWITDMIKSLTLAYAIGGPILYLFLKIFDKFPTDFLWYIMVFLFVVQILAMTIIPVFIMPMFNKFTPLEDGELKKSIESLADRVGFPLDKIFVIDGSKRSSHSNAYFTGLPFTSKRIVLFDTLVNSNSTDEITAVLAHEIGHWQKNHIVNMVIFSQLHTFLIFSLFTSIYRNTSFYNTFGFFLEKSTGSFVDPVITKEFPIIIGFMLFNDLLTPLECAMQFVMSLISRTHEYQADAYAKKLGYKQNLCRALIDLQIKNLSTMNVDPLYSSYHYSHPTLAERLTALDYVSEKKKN
Sequence of Serine/threonine-protein phosphatase (Q9BPW0 whole entry): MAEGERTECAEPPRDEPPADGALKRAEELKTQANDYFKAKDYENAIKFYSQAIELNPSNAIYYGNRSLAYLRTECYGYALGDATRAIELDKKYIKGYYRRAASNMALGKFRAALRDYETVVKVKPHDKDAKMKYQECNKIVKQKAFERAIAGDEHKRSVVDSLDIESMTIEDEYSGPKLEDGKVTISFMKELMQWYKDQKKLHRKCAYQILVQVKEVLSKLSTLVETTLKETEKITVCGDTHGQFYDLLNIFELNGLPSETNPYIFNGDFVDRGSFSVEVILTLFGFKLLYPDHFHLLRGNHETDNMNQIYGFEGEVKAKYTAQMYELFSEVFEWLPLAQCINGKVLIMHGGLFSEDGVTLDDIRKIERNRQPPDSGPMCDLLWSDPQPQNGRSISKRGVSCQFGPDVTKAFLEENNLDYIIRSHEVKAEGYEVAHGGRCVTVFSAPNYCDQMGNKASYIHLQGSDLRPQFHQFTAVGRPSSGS
Sequence of Trypsin (P00761 whole entry): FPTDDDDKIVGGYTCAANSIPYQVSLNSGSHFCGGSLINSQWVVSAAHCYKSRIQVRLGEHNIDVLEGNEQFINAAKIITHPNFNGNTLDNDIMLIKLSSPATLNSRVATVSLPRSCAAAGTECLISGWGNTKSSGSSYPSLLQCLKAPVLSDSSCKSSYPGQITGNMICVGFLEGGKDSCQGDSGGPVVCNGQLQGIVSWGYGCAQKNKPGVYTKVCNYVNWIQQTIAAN
Sequence of Aminopeptidase N (O96935 whole entry): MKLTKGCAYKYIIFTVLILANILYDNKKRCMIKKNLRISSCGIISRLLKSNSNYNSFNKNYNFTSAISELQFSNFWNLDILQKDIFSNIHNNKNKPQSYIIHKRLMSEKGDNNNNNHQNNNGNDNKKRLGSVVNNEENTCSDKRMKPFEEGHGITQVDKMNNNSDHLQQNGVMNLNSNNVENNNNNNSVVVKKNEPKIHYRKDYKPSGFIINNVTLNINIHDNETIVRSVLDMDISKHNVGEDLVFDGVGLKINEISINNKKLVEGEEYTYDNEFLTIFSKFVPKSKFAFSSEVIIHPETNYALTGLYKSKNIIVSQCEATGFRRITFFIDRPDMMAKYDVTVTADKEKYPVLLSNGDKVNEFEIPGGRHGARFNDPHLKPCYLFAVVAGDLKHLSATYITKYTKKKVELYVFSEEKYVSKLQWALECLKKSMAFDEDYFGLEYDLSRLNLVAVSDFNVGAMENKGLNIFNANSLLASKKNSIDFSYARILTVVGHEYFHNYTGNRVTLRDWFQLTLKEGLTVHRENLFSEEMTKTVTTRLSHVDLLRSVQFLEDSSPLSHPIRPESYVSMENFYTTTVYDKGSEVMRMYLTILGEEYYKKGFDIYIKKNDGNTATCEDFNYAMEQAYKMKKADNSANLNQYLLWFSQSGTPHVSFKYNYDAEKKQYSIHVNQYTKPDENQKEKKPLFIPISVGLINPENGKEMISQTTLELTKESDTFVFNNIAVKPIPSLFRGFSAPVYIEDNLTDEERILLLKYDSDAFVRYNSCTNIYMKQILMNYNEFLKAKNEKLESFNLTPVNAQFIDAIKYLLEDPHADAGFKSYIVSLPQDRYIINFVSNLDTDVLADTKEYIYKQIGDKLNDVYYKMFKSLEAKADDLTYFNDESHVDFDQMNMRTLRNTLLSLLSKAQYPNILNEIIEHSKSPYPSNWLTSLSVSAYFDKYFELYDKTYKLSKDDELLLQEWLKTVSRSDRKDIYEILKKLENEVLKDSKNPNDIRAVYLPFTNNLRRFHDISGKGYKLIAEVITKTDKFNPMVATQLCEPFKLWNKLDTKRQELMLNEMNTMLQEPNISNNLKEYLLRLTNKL
Sequence of Serine/threonine-protein phosphatase PP1-alpha catalytic subunit (P62136 whole entry): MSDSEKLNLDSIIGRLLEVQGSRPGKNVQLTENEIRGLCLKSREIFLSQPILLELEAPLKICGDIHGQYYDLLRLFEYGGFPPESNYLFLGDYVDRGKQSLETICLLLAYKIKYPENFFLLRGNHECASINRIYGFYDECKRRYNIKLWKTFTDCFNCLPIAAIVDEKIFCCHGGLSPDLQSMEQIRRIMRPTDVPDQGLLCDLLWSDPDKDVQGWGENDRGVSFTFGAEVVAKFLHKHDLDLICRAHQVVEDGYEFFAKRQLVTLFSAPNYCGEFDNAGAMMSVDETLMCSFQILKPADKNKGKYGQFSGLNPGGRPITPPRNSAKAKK
Sequence of Luciferin 4-monooxygenase (P08659 whole entry): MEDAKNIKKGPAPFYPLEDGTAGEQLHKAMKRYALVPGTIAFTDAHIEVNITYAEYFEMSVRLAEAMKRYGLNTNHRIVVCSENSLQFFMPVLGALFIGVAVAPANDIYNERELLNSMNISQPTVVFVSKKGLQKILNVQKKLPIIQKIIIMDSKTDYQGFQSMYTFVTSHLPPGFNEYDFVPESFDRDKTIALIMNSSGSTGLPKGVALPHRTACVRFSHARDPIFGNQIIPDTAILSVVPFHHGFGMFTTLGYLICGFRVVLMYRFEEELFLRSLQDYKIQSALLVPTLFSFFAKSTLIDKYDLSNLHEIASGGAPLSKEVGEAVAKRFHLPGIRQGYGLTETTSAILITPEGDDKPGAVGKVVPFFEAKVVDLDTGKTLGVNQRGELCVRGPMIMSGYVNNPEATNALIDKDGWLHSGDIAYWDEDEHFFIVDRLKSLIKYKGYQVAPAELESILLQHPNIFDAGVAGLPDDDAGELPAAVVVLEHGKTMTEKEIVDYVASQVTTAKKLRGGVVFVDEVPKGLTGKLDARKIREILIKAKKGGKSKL
Sequence of Paired box protein Pax-8 (Q06710 whole entry): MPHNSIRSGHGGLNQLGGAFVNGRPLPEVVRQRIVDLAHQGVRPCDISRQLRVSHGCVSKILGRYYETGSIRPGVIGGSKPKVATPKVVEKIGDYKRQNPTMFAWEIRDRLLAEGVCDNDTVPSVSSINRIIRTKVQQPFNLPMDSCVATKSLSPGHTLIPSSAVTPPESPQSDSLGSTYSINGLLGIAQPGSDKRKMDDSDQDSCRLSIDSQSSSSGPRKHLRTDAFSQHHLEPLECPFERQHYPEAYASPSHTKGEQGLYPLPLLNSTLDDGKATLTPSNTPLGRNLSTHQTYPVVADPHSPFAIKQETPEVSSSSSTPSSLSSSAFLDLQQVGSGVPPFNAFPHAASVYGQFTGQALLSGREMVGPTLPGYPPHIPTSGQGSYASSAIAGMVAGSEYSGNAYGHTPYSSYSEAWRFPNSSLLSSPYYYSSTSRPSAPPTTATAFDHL

SMILES: O=C(O)c1ccc(CN(c2ccccn2)S(=O)(=O)c2ccccc2)cc1
- IC50 (Ephrin type-A receptor 4): > 100 µM (not active)
- AC50 (Trypsin): 16.6 µM (active)
- AC50 (CAAX prenyl protease 1): 3.92 µM (active)
- AC50 (CAAX prenyl protease 2): 22 µM (active)

SMILES: O=C(NCCC1=CCCCC1)c1c(O)nc2sccn2c1=O
- IC50 [1]: 3.8 µM (active)
- CC50 [2]: 13.8 µM (active)

SMILES: CCOC(=O)c1cnc(-n2nc(C)cc2C)nc1NCc1ccc2c(c1)OCO2
- IC50 [3]: 5.21 µM (active)
- AC50 [4]: 16.1 µM (active)
- EC50 [5]: > 60 µM (not active)
- IC50 [6]: > 67 µM (not active)
- AC50 [7]: 8.74 µM (active)
- EC50 [8]: 2.36 µM (active)
- AC50 [9]: 63 µM (active)

SMILES: CC(C)Oc1ccc(C(=O)N/N=C/c2ccc(-c3ccc(S(=O)(=O)Nc4ncccn4)cc3)o2)cc1
- IC50 (Aminopeptidase N): 23.1 µM (active)

SMILES: COc1cccc(/C=N/Nc2ccc(C(=O)O)cc2)c1O
- AC50 [10]: 0.333 µM (active)
- EC50 [11]: 0.693 µM (active)
- EC50 [12]: 0.17 µM (active)
- IC50 [13]: > 39.8 µM (not active)
- AC50 (Paired box protein Pax-8): 0.635 µM (active)
- IC50 [14]: > 80 µM (inactive)
- AC50 [15]: 21.6 µM (active)
- AC50 (A-375): 29.9 µM (active)

From ChEMBL document CHEMBL1201862, “PubChem BioAssay data set” (2004)
